According to patent US11492385B2, “Long-acting co-agonists of the glucagon and GLP-1 receptors” (Merck Sharp & Dohme Corp., priority 2015, dated 2022):
Where two headings read alike, the source gives them in different places. Starred links: 1 amine or outer side, 2 acyl side, 3 side chain; linkers in the order of their positions; H or OH if unused. Non-standard residues stand in square brackets, D forms with d. Residues, ends and D or L forms follow the SMILES beside them. Groups on a side chain read outwards from the residue. *: point of attachment. Phe(4-CH2NH2) = NCc1ccc(C[C@H](N)C(=O)O)cc1; C18 diacid = O=C(O)CCCCCCCCCCCCCCCCC(=O)*; C17 diacid = O=C(O)CCCCCCCCCCCCCCCC(=O)*; αMeW = C[C@](N)(Cc1c[nH]c2ccccc12)C(=O)O; C16 diacid = O=C(O)CCCCCCCCCCCCCCC(=O)*; γGlu = O=C(O)[C@H](CCC(=O)[*:2])N[*:1]; Met(O2) = CS(=O)(=O)CC[C@H](N)C(=O)O; Palmitoyl = CCCCCCCCCCCCCCCC(=O)*; αMeD = C[C@](N)(CC(=O)O)C(=O)O; AEEA = NCCOCCOCC(=O)O; Aib = CC(C)(N)C(=O)O

Legend:
human GCGR = target: T1, human GCGR (Homo sapiens, UniProt P47871); assay: cAMP activity assay, cells expressing human GCGR; type: cell-based; conditions: for EC50: cAMP production, cells expressing human GCGR, assay buffer with or without 20% human serum (not stated which); for hGCGR/hGLP1R (hTone): ratio of human GCGR EC50 to human GLP1R EC50
T1 construct: expressed in transfected cells; kept under Blasticidin and Hygromycin selection
T1 sequence (P47871 26-477): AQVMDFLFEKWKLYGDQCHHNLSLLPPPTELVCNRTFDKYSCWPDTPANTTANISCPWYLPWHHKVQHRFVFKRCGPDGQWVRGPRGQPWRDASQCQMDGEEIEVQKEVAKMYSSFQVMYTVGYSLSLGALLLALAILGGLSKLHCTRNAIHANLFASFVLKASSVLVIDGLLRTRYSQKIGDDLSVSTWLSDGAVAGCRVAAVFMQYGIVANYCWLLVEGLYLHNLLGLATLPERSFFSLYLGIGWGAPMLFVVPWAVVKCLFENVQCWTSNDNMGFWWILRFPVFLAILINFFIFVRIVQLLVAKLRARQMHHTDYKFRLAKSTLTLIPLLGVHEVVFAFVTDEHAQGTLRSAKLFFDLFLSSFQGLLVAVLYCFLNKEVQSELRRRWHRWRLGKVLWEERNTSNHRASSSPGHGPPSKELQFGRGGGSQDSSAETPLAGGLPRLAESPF
Procedure: (§1) Activity of the peptides at the Glucagon receptor (GCGR) and GLP-1 receptor (GLP1R) was measured in a cAMP activity assay. Peptides were dissolved in 100% DMSO and serially diluted to generate 10 point titrations. The peptide solutions were then transferred into 384-well assay plates (150 nL/well). […] Production of cAMP was determined using […] kits (DiscoverX) following manufacturer protocol. The plates were incubated for overnight at room temperature in the dark. Luminescence was measured using an EnVision Multilabel plate reader (Perkin Elmer). Native GLP-1 and Glucagon (Bachem) are used as control peptides. EC50 values were calculated using uses a 4 parameter logistic fit based on the Levenberg-Marquardt algorithm.

human GLP1R = target: T2, human GLP1R (Homo sapiens, UniProt P43220); assay: cAMP activity assay, cells expressing human GLP1R; type: cell-based; conditions: cAMP production, assay buffer with or without 20% human serum (not stated which)
T2 construct: expressed in transfected cells; kept under Blasticidin and Hygromycin selection
T2 sequence (P43220 24-463): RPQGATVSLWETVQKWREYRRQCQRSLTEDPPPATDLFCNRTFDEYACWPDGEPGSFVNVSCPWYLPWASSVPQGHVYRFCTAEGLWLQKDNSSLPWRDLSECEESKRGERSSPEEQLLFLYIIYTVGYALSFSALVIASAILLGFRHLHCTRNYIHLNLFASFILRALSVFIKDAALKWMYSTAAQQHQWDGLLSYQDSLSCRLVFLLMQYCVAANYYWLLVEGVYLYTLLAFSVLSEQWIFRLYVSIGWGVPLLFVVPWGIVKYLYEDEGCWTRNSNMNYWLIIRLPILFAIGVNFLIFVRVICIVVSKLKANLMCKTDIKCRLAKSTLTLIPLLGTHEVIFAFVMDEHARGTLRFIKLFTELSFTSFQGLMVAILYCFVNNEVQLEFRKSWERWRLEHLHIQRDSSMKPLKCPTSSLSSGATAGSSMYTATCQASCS
Procedure: as §1

SMILES | EC50 (human GCGR; read-out: GCGR EC50 human) | hGCGR/hGLP1R (hTone) (human GCGR) | EC50 (human GLP1R) | EC50 (human GCGR; GCGR EC50 human)
CC(C)C[C@H](NC(=O)[C@H](Cc1ccc(O)cc1)NC(=O)[C@H](CCCCN)NC(=O)[C@H](CO)NC(=O)[C@H](Cc1ccc(O)cc1)NC(=O)[C@H](CC(=O)O)NC(=O)[C@H](CO)NC(=O)[C@@H](NC(=O)[C@H](Cc1ccccc1)NC(=O)[C@@H](NC(=O)CNC(=O)[C@H](CCC(N)=O)NC(=O)C(C)(C)NC(=O)[C@@H](N)Cc1c[nH]cn1)[C@@H](C)O)[C@@H](C)O)C(=O)N[C@@H](CC(=O)O)C(=O)N[C@@H](C)C(=O)N[C@@H](CCCNC(=N)N)C(=O)N[C@@H](C)C(=O)N[C@@H](C)C(=O)N[C@@H](CCCCNC(=O)COCCOCCNC(=O)COCCOCCNC(=O)CC[C@H](NC(=O)CCCCCCCCCCCCCCCCC(=O)O)C(=O)O)C(=O)N[C@@H](CC(=O)O)C(=O)N[C@@H](Cc1ccccc1)C(=O)N[C@H](C(=O)N[C@@H](CCC(N)=O)C(=O)N[C@@H](Cc1c[nH]c2ccccc12)C(=O)N[C@@H](CC(C)C)C(=O)N[C@@H](CCS(C)(=O)=O)C(=O)N[C@@H](CC(=O)O)C(=O)N[C@H](C(N)=O)[C@@H](C)O)C(C)C [compound 29] (H-H[Aib]QGTFTSDYSKYLDARAAK([AEEA-AEEA-γGlu-C18 diacid])DFVQWL[Met(O2)]DT-NH2; N-terminus assumed) | 0.79 nM | 2.93 | 0.27 nM | –
CC(C)C[C@H](NC(=O)[C@H](CC(C)C)NC(=O)[C@H](Cc1c[nH]c2ccccc12)NC(=O)[C@H](CCC(N)=O)NC(=O)[C@@H](NC(=O)[C@H](Cc1ccccc1)NC(=O)[C@H](CC(=O)O)NC(=O)[C@H](CCC(N)=O)NC(=O)[C@H](C)NC(=O)[C@H](C)NC(=O)[C@H](CCCNC(=N)N)NC(=O)C(C)(C)NC(=O)[C@H](CC(=O)O)NC(=O)[C@H](CC(C)C)NC(=O)[C@H](Cc1ccc(O)cc1)NC(=O)[C@H](CCCCN)NC(=O)[C@H](CO)NC(=O)[C@H](Cc1ccc(CNC(=O)COCCOCCNC(=O)COCCOCCNC(=O)CC[C@H](NC(=O)CCCCCCCCCCCCCCC(=O)O)C(=O)O)cc1)NC(=O)[C@H](CC(=O)O)NC(=O)[C@H](CO)NC(=O)[C@@H](NC(=O)[C@H](Cc1ccccc1)NC(=O)[C@@H](NC(=O)CNC(=O)[C@H](CCC(N)=O)NC(=O)C(C)(C)NC(=O)[C@@H](N)Cc1c[nH]cn1)[C@@H](C)O)[C@@H](C)O)C(C)C)C(=O)N[C@@H](C)C(=O)N[C@H](C(=O)N[C@@H](CCCCNC(=O)CC[C@H](N)C(=O)O)C(N)=O)[C@@H](C)O [compound 11] (H-H[Aib]QGTFTSD[Phe(4-CH2NH2)]([AEEA-AEEA-γGlu-C16 diacid])SKYLD[Aib]RAAQDFVQWLLATK(γGlu)-NH2) | – | 4.15 | – | 1.03 nM
CCCCCCCCCCCCCCCC(=O)N[C@@H](CCC(=O)NCCOCCOCC(=O)NCCOCCOCC(=O)NCc1ccc(C[C@H](NC(=O)[C@H](CC(=O)O)NC(=O)[C@H](CO)NC(=O)[C@@H](NC(=O)[C@H](Cc2ccccc2)NC(=O)[C@@H](NC(=O)CNC(=O)[C@H](CCC(N)=O)NC(=O)C(C)(C)NC(=O)[C@@H](N)Cc2c[nH]cn2)[C@@H](C)O)[C@@H](C)O)C(=O)N[C@@H](CO)C(=O)N[C@@H](CCCCN)C(=O)N[C@@H](Cc2ccc(O)cc2)C(=O)N[C@@H](CC(C)C)C(=O)N[C@@H](CC(=O)O)C(=O)N[C@@H](C)C(=O)N[C@@H](CCCNC(=N)N)C(=O)N[C@@H](C)C(=O)N[C@@H](C)C(=O)N[C@@H](CCC(N)=O)C(=O)N[C@@H](CC(=O)O)C(=O)N[C@@H](Cc2ccccc2)C(=O)N[C@H](C(=O)N[C@@H](CCC(N)=O)C(=O)N[C@@H](Cc2c[nH]c3ccccc23)C(=O)N[C@@H](CC(C)C)C(=O)N[C@@H](CCS(C)(=O)=O)C(=O)N[C@@H](CC(=O)O)C(=O)N[C@H](C(N)=O)[C@@H](C)O)C(C)C)cc1)C(=O)O [compound 13] (H-H[Aib]QGTFTSD[Phe(4-CH2NH2)]([AEEA-AEEA-γGlu-Palmitoyl])SKYLDARAAQDFVQWL[Met(O2)]DT-NH2) | – | 2.19 | – | –
CC(C)C[C@H](NC(=O)[C@H](Cc1ccc(O)cc1)NC(=O)[C@H](CCCCN)NC(=O)[C@H](CO)NC(=O)[C@H](Cc1ccc(O)cc1)NC(=O)[C@H](CC(=O)O)NC(=O)[C@H](CO)NC(=O)[C@@H](NC(=O)[C@H](Cc1ccccc1)NC(=O)[C@@H](NC(=O)CNC(=O)[C@H](CCC(N)=O)NC(=O)[C@@H](CO)NC(=O)[C@@H](N)Cc1c[nH]cn1)[C@@H](C)O)[C@@H](C)O)C(=O)N[C@@H](CC(=O)O)C(=O)N[C@@H](C)C(=O)N[C@@H](CCCNC(=N)N)C(=O)N[C@@H](C)C(=O)N[C@@H](C)C(=O)N[C@@H](CCC(N)=O)C(=O)N[C@@H](CCCCNC(=O)COCCOCCNC(=O)COCCOCCNC(=O)CC[C@H](NC(=O)CCCCCCCCCCCCCCCCC(=O)O)C(=O)O)C(=O)N[C@@H](Cc1ccccc1)C(=O)N[C@H](C(=O)N[C@@H](CCC(N)=O)C(=O)N[C@@H](Cc1c[nH]c2ccccc12)C(=O)N[C@@H](CC(C)C)C(=O)N[C@@H](CC(C)C)C(=O)N[C@@H](CC(=O)O)C(=O)N[C@H](C(N)=O)[C@@H](C)O)C(C)C [compound 21] (H-H[dS]QGTFTSDYSKYLDARAAQK([AEEA-AEEA-γGlu-C18 diacid])FVQWLLDT-NH2) | – | 0.17 | – | –

Now from value to molecule, other results behind:

EC50 (human GCGR; read-out: GCGR EC50 human) | hGCGR/hGLP1R (hTone) (human GCGR) | EC50 (human GLP1R) | SMILES | EC50 (human GCGR; GCGR EC50 human)
0.67 nM | 6.24 | 0.11 nM | CC(C)C[C@H](NC(=O)[C@H](Cc1ccc(O)cc1)NC(=O)[C@H](CCCCN)NC(=O)[C@H](CO)NC(=O)[C@H](Cc1ccc(O)cc1)NC(=O)[C@](C)(CC(=O)O)NC(=O)[C@H](CO)NC(=O)[C@@H](NC(=O)[C@H](Cc1ccccc1)NC(=O)[C@@H](NC(=O)CNC(=O)[C@H](CCC(N)=O)NC(=O)C(C)(C)NC(=O)[C@@H](N)Cc1c[nH]cn1)[C@@H](C)O)[C@@H](C)O)C(=O)N[C@@H](CC(=O)O)C(=O)N[C@@H](C)C(=O)N[C@@H](CCCNC(=N)N)C(=O)N[C@@H](C)C(=O)N[C@@H](C)C(=O)N[C@@H](CCCCNC(=O)COCCOCCNC(=O)COCCOCCNC(=O)CC[C@H](NC(=O)CCCCCCCCCCCCCCC(=O)O)C(=O)O)C(=O)N[C@@H](CC(=O)O)C(=O)N[C@@H](Cc1ccccc1)C(=O)N[C@H](C(=O)N[C@@H](CCC(N)=O)C(=O)N[C@@H](Cc1c[nH]c2ccccc12)C(=O)N[C@@H](CC(C)C)C(=O)N[C@@H](CCS(C)(=O)=O)C(=O)N[C@@H](CC(=O)O)C(=O)N[C@H](C(N)=O)[C@@H](C)O)C(C)C [compound 37] (H-H[Aib]QGTFTS[αMeD]YSKYLDARAAK([AEEA-AEEA-γGlu-C16 diacid])DFVQWL[Met(O2)]DT-NH2) | –
– | 3 | – | CC(C)C[C@H](NC(=O)[C@H](Cc1ccc(O)cc1)NC(=O)[C@H](CCCCN)NC(=O)[C@H](CO)NC(=O)[C@H](Cc1ccc(O)cc1)NC(=O)[C@H](CC(=O)O)NC(=O)[C@H](CO)NC(=O)[C@@H](NC(=O)[C@H](Cc1ccccc1)NC(=O)[C@@H](NC(=O)CNC(=O)[C@H](CCC(N)=O)NC(=O)C(C)(C)NC(=O)[C@@H](N)Cc1c[nH]cn1)[C@@H](C)O)[C@@H](C)O)C(=O)N[C@@H](CC(=O)O)C(=O)N[C@@H](C)C(=O)N[C@@H](CCCNC(=N)N)C(=O)N[C@@H](C)C(=O)N[C@@H](C)C(=O)N[C@@H](CCCCNC(=O)COCCOCCNC(=O)COCCOCCNC(=O)CC[C@H](NC(=O)CCCCCCCCCCCCCCC(=O)O)C(=O)O)C(=O)N[C@@H](CC(=O)O)C(=O)N[C@@H](Cc1ccccc1)C(=O)N[C@H](C(=O)N[C@@H](CCC(N)=O)C(=O)N[C@@](C)(Cc1c[nH]c2ccccc12)C(=O)N[C@@H](CC(C)C)C(=O)N[C@@H](CCS(C)(=O)=O)C(=O)N[C@@H](CC(=O)O)C(=O)N[C@H](C(N)=O)[C@@H](C)O)C(C)C [compound 78] (H-H[Aib]QGTFTSDYSKYLDARAAK([AEEA-AEEA-γGlu-C16 diacid])DFVQ[αMeW]L[Met(O2)]DT-NH2) | –
– | 1.30 | – | CC(C)C[C@H](NC(=O)[C@H](Cc1ccc(O)cc1)NC(=O)[C@H](CCCCN)NC(=O)[C@H](CO)NC(=O)[C@H](Cc1ccc(O)cc1)NC(=O)[C@H](CC(=O)O)NC(=O)[C@H](CO)NC(=O)[C@@H](NC(=O)[C@H](Cc1ccccc1)NC(=O)[C@@H](NC(=O)CNC(=O)[C@H](CCC(N)=O)NC(=O)C(C)(C)NC(=O)[C@@H](N)Cc1c[nH]cn1)[C@@H](C)O)[C@@H](C)O)C(=O)N[C@@H](CC(=O)O)C(=O)N[C@@H](C)C(=O)N[C@@H](CCCNC(=N)N)C(=O)N[C@@H](C)C(=O)N[C@@H](C)C(=O)N[C@@H](CCCCNC(=O)COCCOCCNC(=O)COCCOCCNC(=O)CC[C@H](NC(=O)CCCCCCCCCCCCCCCC(=O)O)C(=O)O)C(=O)N[C@@H](CC(=O)O)C(=O)N[C@@H](Cc1ccccc1)C(=O)N[C@H](C(=O)N[C@@H](CCC(N)=O)C(=O)N[C@@H](Cc1c[nH]c2ccccc12)C(=O)N[C@@H](CC(C)C)C(=O)N[C@@H](CCS(C)(=O)=O)C(=O)N[C@@H](CC(=O)O)C(=O)N[C@H](C(N)=O)[C@@H](C)O)C(C)C [compound 47] (H-H[Aib]QGTFTSDYSKYLDARAAK([AEEA-AEEA-γGlu-C17 diacid])DFVQWL[Met(O2)]DT-NH2) | –
